From ChEMBL document CHEMBL1201862, “PubChem BioAssay data set” (2004)
Activity calls are given as the source filed them.

Key:
[1] = Luminescence Cell-Based Dose Confirmation HTS to Identify Activators of 5'UTR Stem-Loop Driven Alpha-Synuclein mRNA Translation in H4 Neuroglioblastoma Cells. [Related pubchem assays: 1829 (Project Summary), 1814 (Primary HTS)]; assay type: functional
[2] = target: 5-hydroxytryptamine receptor 1E (Homo sapiens, UniProt P28566); test: Counterscreen assay for S1P3 antagonists: Dose response cell-based high throughput screening assay to identify antagonists of the 5-Hydroxytryptamine Receptor Subtype 1E (5HT1E). [Related pubchem assays: 1429, 485 ]; assay type: functional
5-hydroxytryptamine receptor 1E, sequence (P28566 whole entry): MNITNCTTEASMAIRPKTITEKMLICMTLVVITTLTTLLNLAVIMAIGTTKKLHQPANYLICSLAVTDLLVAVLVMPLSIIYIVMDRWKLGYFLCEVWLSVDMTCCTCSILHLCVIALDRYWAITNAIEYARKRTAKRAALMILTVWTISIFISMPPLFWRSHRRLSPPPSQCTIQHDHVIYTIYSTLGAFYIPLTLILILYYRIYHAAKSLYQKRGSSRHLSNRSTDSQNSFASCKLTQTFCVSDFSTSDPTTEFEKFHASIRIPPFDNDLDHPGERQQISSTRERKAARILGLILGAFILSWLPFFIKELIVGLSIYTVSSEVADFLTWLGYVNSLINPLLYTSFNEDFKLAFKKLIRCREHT

[3] = Luminescence Cell-Based Dose Response HTS to Identify Activators of Luciferase Translation or Activity in H4 […] Cells. [Related pubchem assays: 1829 (Project Summary), 1814 (Primary HTS)]; assay type: functional
[4] = LGR2 antagonists, dose response, cell-based, HEK293, CRE-luciferase reporter, cherry pick, set 2 (AID 743343); assay type: functional;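 further: transfected cells were stimulated with diluted bursicon conditioned medium after compound addition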
H4 = test: Luminescence Cell-Based Dose Response HTS to Identify Activators of 5'UTR Stem-Loop Driven Prion Protein mRNA Translation in H4 Neuroglioblastoma Cells. [Related pubchem assays: 1829 (Project Summary), 1814 (Primary HTS)]; assay type: functional; settings: Homo sapiens
[5] = cytotoxicity in HEK-293T cells, dose response, cytotoxicity control for TCR NF-kB inhibitor project, luminescence, T-cell screen hits (AID 489026); assay type: functional, cell-based;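 further: cells exposed to compound about 14 hours before the viability readout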
[6] = MC4R antagonists, dose response, counter-screen for LGR2 antagonist project, cell-based, plate reader, cherry pick (AID 743444); assay type: functional;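 further: transfected HEK 293 cells stimulated with alpha-MSH peptide; potency of inhibitors of the alpha-MSH evoked signal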
[7] = target: Sphingosine 1-phosphate receptor 3 (Homo sapiens, UniProt Q99500); test: Dose response cell-based high throughput screening assay for antagonists of the Sphingosine 1-Phosphate Receptor 3 (S1P3). [Related pubchem assays: 1429, 485 ]; assay type: functional
Sphingosine 1-phosphate receptor 3, sequence (Q99500 whole entry): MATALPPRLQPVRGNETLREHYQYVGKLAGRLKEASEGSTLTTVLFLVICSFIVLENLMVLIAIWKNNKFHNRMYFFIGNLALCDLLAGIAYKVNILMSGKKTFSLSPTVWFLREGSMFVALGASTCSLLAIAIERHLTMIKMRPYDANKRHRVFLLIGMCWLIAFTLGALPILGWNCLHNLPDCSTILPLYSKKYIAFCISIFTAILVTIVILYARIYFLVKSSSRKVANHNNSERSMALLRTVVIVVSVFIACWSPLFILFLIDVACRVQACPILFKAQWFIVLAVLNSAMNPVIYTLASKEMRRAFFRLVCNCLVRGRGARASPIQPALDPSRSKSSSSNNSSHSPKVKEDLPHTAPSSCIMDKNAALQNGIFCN

[8] = target: Neurotensin receptor type 1 (Homo sapiens, UniProt P30989); assay type: functional;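 further: Image-based confirmatory dose-response assay measuring agonist activity at NTR1; NTR1-expressing U2OS osteosarcoma cells imaged for beta-arrestin GFP spot formation; agonist potency where compounds increase beta-arrestin recruitment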
[9] = HepG2 cell cytotoxicity, dose response, cytotoxicity control, plate reader, cherry-pick, antagonist series (AID 743416); assay type: functional, cell-based
INS1 = test: beta cell apoptosis inhibitors, cytokine rescue, dose response, luminescence, retest (AID 449756); assay type: functional, cell-based; settings: Rattus norvegicus;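 further: cell death triggered by IL-1 beta plus TNF-alpha plus IFN-gamma mixture; protective hits raise ATP signal compared with cytokine alone wells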
Genome polyprotein = Genome polyprotein (dengue virus type 2, UniProt P29990); test: Dengue-2 NS5 methyltransferase inhibitors, primary screen, biochemical, confirmation dose response (AID 588689); assay type: functional
Vero = Vero cell cytotoxicity, cytotoxicity control for flavivirus capping enzyme inhibitors (AID 588742); assay type: functional; settings: Chlorocebus sabaeus
[10] = HIV-1 Env-mediated cell fusion inhibitors, dose response, CCR5-tropic Env (AID 2279); assay type: functional
[11] = Luminescence Cell-Based Dose Response HTS to Identify Inhibitors of 5'UTR Stem-Loop Driven Prion Protein mRNA Translation in H4 Neuroglioblastoma Cells. [Related pubchem assays: 1827 (Project Summary), 1813 (Primary HTS)]; assay type: functional
[12] = Luminescence-based counterscreen assay for KLF5 inhibitors: dose response cell-based high throughput screening assay to identify cytotoxic compounds using the IEC-6 intestinal epithelial cell line. [Related pubchem assays: 1700 (Primary screen.), 1834 (Confirmation screen.), 1858 (Summary AID.), 1905 (Counterscreen.)]; assay type: functional
[13] = inhibitors of SNCA 5'UTR-driven reporter translation, confirmation, H4 neuroglioma cells, luminescence (AID 1988); assay type: functional, cell-based
Estrogen receptor = target: T1, Estrogen receptor (Homo sapiens, UniProt P03372); test: ERα–SRC-3 coactivator interaction inhibitors, confirmation, orthogonal assay, biochemical, ELISA, streptavidin-HRP readout (AID 1079)
T1 sequence (P03372 whole entry): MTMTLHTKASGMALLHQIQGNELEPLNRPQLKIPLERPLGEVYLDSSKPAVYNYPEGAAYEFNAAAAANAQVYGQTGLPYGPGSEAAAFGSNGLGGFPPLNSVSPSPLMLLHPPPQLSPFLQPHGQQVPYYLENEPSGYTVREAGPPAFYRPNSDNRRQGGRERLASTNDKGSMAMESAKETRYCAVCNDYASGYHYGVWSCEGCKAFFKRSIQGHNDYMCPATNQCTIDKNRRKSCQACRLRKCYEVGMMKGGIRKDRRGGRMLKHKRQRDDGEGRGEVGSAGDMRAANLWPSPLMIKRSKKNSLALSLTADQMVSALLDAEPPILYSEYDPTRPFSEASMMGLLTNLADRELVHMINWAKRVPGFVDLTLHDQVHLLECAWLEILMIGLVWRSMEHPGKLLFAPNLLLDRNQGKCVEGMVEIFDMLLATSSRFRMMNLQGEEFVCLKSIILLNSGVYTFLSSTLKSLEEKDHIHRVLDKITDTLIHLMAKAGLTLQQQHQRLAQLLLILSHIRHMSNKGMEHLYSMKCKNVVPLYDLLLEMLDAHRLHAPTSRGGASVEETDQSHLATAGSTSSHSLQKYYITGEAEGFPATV

[14] = target: T2, Luciferin 4-monooxygenase (Photinus pyralis, UniProt P08659); test: Counter Screen for Luciferase-based Assay Positives. [Related pubchem assays: 620, 618, 411 ]
T2 sequence (P08659 whole entry): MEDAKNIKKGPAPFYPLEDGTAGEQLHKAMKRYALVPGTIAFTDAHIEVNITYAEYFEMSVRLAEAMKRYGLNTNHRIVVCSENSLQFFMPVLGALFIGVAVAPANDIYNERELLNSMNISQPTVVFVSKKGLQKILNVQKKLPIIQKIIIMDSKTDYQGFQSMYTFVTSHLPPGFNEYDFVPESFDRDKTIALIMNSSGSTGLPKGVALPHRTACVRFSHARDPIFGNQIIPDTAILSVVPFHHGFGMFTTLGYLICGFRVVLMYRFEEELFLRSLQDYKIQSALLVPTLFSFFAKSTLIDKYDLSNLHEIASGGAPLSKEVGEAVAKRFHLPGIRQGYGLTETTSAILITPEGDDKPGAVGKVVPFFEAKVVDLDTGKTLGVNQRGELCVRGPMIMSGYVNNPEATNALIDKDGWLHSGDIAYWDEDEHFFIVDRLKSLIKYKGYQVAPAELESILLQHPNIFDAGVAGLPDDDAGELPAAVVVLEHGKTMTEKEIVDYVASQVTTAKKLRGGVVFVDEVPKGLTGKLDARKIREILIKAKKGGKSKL

HT-1080 = test: cytotoxicity in HT1080 fibrosarcoma cells, cell-based, fluorescence readout (AID 620); assay type: functional; settings: Homo sapiens
[15] = target: T2, Luciferin 4-monooxygenase; test: firefly luciferase enzyme inhibitors, dose response, biochemical, luminescence (AID 1891)
[16] = Luminescence Cell-Based Dose Confirmation HTS to Identify Inhibitors of Platelet Dense Granule Release. [Related pubchem assays: 1663 (Primary HTS), 1678 (Summary of Project)]; assay type: functional
Bcl-2-like protein 10 = target: T3, Bcl-2-like protein 10 (Homo sapiens, UniProt Q9HD36); test: Biochemical TR3 FP assay of Bcl-B inhibitor potency, EC50 (AID 1243); assay type: functional
T3 sequence (Q9HD36 whole entry): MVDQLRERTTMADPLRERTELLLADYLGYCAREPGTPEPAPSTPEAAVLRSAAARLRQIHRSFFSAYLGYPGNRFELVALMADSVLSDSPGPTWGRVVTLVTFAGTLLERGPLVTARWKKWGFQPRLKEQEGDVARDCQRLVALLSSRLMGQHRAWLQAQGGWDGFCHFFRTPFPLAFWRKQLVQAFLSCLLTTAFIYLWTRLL

[17] = target: Neuropeptide Y receptor type 2 (Homo sapiens, UniProt P49146); assay type: functional, cell-based;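 further: HEK293 cells expressing the receptor and a CNG channel; stimulus was NPY near EC95 followed by isoproterenol to raise cAMP; antagonist potency measured as restoring cAMP signal that NPY suppresses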
Neuropeptide Y receptor type 2, sequence (P49146 whole entry): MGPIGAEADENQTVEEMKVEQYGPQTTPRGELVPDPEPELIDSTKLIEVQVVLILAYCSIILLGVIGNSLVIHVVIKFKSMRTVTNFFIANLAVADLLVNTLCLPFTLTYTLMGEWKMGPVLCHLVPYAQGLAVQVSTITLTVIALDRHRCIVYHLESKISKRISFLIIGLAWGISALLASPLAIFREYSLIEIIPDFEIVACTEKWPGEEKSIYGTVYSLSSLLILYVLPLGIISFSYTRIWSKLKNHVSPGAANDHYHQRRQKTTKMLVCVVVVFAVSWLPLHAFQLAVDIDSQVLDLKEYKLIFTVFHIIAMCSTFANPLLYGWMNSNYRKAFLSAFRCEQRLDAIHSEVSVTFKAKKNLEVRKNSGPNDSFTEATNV

[18] = target: Neuropeptide Y receptor type 1 (Homo sapiens, UniProt P25929); assay type: functional;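 further: HEK293 cells with a CNG channel challenged with NPY then isoproterenol; potency as antagonist that reverses NPY suppression of cAMP signal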
[19] = off-target signal loss in HeLa-CEM21 co-culture – HeLa F-luc CTL cells, cherry-picked, counter-screen for HIV-1 Env fusion inhibitor project, dose response (AID 652040); assay type: functional, cell-based;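 further: potency for signal decrease marking cytotoxic or nonspecific inhibition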
[20] = CEM21 lymphoblast cell cytotoxicity, dose response, cytotoxicity control for viral fusion inhibitor project, CellTiter-Glo luminescence, cherry-picked (AID 652042); assay type: functional, cell-based;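 further: potency for signal decrease meaning cytotoxicity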
[21] = CEM21 cell cytotoxicity, dose response, cytotoxicity control, plate reader, dry powder (AID 687026); assay type: functional, cell-based
[22] = inhibitors of HIV Env-driven cell fusion, dose response, cherry-pick (AID 652057); assay type: functional, cell-based
[23] = target: Induced myeloid leukemia cell differentiation protein Mcl-1 (Homo sapiens, UniProt Q07820); test: MCL1-BIM BH3 interaction inhibitors, dose response, biochemical, fluorescence polarization, BIM-BH3 peptide, 1536-well (AID 2217)
Bcl-2-like protein 1 = Bcl-2-like protein 1 (Homo sapiens, UniProt Q07817); test: BCL-XL inhibitors, dose response, selectivity assay for MCL1 inhibitor project, biochemical, fluorescence polarization, 1536-well (AID 2218)
[24] = target: T4, Voltage-gated N-type calcium channel alpha-1B subunit/Amyloid beta A4 precursor protein-binding family A member 1 (Homo sapiens, UniProt Q00975+Q02410); assay type: protein assay
T4 sequence (Q00975 whole entry): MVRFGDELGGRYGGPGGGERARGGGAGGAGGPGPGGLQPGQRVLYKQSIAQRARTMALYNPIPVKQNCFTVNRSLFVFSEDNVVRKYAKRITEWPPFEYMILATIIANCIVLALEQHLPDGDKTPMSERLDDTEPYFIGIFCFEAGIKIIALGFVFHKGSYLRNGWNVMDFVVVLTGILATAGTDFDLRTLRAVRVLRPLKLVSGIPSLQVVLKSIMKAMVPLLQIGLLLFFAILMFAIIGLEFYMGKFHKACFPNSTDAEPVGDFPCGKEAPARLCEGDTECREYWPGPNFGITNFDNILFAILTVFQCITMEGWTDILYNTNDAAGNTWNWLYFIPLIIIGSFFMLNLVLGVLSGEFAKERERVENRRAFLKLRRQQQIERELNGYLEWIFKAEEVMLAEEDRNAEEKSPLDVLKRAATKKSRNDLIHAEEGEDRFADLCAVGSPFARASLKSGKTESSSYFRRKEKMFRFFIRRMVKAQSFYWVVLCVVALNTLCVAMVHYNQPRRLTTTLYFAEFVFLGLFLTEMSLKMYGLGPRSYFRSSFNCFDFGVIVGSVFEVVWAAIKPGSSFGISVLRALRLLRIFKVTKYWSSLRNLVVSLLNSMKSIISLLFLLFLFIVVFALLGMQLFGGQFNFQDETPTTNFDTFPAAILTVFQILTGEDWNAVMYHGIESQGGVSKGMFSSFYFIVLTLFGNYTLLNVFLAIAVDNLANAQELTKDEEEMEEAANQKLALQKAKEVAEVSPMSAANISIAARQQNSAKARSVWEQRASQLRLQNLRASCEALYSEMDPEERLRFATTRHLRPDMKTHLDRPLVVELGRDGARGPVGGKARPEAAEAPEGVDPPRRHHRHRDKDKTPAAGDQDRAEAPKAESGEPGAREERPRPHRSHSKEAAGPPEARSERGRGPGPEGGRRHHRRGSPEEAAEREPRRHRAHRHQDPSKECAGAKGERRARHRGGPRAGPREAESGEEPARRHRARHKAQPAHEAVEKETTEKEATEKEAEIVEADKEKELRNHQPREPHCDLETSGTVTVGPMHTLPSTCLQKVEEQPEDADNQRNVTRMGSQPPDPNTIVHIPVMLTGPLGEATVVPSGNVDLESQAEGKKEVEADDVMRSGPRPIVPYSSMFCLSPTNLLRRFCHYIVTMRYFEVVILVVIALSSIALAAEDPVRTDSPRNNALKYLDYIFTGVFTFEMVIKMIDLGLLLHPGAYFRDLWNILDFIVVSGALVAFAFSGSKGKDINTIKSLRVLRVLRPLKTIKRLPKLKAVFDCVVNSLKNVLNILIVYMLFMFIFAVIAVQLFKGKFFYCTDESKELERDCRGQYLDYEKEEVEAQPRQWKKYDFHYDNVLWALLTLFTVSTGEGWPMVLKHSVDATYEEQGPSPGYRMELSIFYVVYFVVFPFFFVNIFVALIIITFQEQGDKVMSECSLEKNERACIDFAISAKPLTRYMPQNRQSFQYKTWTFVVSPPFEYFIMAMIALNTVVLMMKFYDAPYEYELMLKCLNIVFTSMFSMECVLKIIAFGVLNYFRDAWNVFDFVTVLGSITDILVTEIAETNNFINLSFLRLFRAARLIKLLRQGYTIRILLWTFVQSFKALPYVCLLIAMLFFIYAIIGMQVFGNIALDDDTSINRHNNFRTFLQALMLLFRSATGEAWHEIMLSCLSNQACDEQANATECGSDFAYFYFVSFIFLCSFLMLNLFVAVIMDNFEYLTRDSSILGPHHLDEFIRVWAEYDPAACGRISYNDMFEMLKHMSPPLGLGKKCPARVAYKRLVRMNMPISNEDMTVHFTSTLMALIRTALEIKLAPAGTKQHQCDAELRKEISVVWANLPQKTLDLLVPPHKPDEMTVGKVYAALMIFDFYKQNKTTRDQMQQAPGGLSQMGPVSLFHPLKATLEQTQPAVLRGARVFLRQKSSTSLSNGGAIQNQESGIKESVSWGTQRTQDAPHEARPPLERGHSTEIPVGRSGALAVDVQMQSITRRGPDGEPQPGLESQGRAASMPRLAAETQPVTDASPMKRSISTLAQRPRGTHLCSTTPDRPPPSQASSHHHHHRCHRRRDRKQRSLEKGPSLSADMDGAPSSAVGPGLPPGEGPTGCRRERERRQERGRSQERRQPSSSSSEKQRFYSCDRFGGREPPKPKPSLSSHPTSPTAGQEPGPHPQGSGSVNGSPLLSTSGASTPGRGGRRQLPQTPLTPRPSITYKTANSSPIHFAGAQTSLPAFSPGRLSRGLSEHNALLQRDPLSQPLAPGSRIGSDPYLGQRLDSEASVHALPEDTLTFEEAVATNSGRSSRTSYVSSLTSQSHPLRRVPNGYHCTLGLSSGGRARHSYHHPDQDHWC
T4 sequence (Q02410 whole entry): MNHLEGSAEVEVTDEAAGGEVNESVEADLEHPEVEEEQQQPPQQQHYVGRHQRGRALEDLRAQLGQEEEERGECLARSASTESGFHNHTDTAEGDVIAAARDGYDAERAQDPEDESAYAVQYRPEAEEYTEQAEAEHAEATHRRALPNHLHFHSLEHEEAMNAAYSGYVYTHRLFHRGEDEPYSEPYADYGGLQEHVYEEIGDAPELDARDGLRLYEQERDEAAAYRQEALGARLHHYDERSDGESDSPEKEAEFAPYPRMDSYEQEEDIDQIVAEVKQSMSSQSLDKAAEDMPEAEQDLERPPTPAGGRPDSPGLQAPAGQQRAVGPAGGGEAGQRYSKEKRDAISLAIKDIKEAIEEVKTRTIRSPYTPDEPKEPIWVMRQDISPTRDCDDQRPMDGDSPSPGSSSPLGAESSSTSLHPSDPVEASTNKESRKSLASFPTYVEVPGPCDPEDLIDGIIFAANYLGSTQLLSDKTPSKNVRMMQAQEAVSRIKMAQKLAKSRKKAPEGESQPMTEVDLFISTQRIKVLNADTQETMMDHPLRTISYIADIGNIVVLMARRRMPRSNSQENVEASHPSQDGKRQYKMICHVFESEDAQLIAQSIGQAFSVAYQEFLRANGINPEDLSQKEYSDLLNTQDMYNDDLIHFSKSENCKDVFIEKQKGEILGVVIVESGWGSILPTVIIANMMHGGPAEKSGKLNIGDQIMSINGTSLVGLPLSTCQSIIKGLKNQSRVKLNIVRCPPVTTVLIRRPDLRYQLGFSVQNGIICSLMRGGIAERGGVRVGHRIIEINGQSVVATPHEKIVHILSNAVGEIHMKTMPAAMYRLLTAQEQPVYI

[25] = target: T4, Voltage-gated N-type calcium channel alpha-1B subunit/Amyloid beta A4 precursor protein-binding family A member 1; assay type: protein assay; remark: listed apart in the source
[26] = target: T5, RNA-binding protein pos-1 (Caenorhabditis elegans, UniProt G5EF15); test: inhibitors of POS-1/mex-3 RNA binding, dose response, biochemical, fluorescence polarization (AID 1964);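 further: purified POS-1 fused to maltose binding protein made in E. coli; potency of compounds blocking POS-1 binding to fluorescent RNA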
T5 sequence (G5EF15 whole entry): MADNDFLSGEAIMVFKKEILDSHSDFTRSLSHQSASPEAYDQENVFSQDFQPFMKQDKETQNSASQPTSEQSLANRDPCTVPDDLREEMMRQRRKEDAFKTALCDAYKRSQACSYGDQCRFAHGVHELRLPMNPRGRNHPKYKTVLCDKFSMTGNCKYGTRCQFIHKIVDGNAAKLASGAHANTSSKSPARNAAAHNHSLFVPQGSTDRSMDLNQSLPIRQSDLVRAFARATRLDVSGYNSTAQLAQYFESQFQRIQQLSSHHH

Hexokinase HKDC1 = target: T6, Hexokinase HKDC1 (Homo sapiens, UniProt Q2TB90); test: HKDC1 hexokinase inhibitors, dose response, biochemical, W721R variant (AID 504729); assay type: functional
T6 sequence (Q2TB90 whole entry): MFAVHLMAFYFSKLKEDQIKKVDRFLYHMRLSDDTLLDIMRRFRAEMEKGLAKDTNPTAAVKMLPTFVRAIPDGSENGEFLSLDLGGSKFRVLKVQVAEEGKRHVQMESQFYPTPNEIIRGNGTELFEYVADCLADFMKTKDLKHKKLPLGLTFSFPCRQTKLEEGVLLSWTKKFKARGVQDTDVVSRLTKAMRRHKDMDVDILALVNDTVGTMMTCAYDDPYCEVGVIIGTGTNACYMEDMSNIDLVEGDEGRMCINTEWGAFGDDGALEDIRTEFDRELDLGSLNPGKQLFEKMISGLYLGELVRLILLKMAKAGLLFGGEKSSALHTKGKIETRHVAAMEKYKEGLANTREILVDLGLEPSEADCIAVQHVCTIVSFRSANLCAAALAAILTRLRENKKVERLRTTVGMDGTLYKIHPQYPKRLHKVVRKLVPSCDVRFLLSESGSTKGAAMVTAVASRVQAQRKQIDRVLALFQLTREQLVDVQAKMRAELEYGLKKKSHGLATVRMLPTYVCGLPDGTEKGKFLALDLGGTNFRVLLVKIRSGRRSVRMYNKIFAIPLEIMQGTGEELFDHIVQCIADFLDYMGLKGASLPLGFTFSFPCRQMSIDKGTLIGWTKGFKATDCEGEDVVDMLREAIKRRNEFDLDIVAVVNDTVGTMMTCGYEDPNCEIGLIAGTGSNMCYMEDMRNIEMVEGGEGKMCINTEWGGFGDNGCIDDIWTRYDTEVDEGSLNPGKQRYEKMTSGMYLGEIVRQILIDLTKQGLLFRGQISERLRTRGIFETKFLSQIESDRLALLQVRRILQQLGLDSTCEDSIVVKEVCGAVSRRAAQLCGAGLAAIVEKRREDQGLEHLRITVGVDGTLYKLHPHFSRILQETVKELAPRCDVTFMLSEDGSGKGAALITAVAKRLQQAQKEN

[27] = target: DNA (cytosine-5)-methyltransferase 1 (Homo sapiens, UniProt P26358); test: DNMT1 methyltransferase inhibitors, confirmation, biochemical, fluorescent molecular beacon (AID 602386); assay type: functional
[28] = target: T7, Zinc finger protein mex-5 (Caenorhabditis elegans, UniProt Q9XUB2); test: MEX-5/TCR-2 RNA interaction inhibitors, dose response, biochemical, C. elegans, fluorescence polarization (AID 1960)
T7 sequence (Q9XUB2 whole entry): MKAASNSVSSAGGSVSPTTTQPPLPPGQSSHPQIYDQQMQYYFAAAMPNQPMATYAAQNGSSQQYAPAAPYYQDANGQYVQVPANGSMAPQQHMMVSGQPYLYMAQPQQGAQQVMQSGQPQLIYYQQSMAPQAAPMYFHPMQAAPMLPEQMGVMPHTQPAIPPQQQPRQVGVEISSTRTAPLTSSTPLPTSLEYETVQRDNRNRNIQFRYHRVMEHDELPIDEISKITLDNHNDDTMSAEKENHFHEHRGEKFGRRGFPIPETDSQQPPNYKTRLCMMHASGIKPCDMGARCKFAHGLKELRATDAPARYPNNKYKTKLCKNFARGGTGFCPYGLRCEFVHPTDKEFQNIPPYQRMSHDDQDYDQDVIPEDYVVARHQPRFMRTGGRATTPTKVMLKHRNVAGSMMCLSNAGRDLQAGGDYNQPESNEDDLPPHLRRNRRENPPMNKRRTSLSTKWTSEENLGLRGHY

COc1ccc(CC(=O)Nc2cccc(-c3nnc(-c4cccc(C)c4)o3)c2)cc1OC
EC50 [1]: 15 µM (active) | IC50 [2]: 1.76 µM (active) | EC50 [3]: 6.16 µM (active) | AC50 [4]: 8.16 µM (active) | EC50 (H4): 118 µM (active) | IC50 [5]: 2.35 µM (active) | AC50 [6]: 10.5 µM (active) | IC50 [7]: 5.21 µM (active) | EC50 [8]: 29.5 µM (inactive) | AC50 [9]: 47.6 µM (active) | AC50 (INS1): 2.47 µM (active)

CC(C)(C)c1ccc(OCC(=O)NNC(=S)NC(=O)c2ccccc2[N+](=O)[O-])c(Br)c1
IC50 (Genome polyprotein): 56 µM (active) | CC50 (Vero): > 40 µM (active) | IC50 [10]: > 50 µM (active)

CN(C)c1ccc(/C=C/c2nc(O)c3ccccc3n2)cc1
EC50 [11]: 4.08 µM (active) | IC50 [12]: 32.3 µM (not active) | EC50 [13]: 5.96 µM (active)

COc1cc2[nH]c(=S)n(CCCC(=O)N3CCN(c4cccc(Cl)c4)CC3)c(=O)c2cc1OC
IC50 (Estrogen receptor): 2.36 µM (not active)

Cc1ccsc1/C=C1\CCc2ccccc2C1=O
EC50 [14]: 0.89 µM (active) | EC50 (HT-1080): > 50 µM (not active) | EC50 [15]: 0.518 µM (active) | EC50 [16]: 2.43 µM (active)

Cc1ccc(C(=O)c2coc3c2C(=O)C(=O)C(Cl)=C3Cl)cc1
EC50 (Bcl-2-like protein 10): 6.17 µM (active)

COc1ccccc1CCNCc1ccc(OC)c(OCc2ccccc2)c1
IC50 [17]: 1.97 µM (active) | IC50 [18]: 9.05 µM (active) | AC50 [19]: > 70 µM (inactive) | AC50 [20]: 54.1 µM (active) | AC50 [21]: > 70 µM (inactive) | AC50 [22]: 2.11 µM (active)

O=C(CNC(=O)/C=C/c1ccco1)N=Nc1c(O)[nH]c2ccccc12
IC50 [23]: 9.7 µM (active) | IC50 (Bcl-2-like protein 1): 37.1 µM (not active) | IC50 [24]: 4.97 µM (active) | IC50 [25]: > 56.8 µM (not active) | EC50 [26]: 13.1 µM (inconclusive) | IC50 (Hexokinase HKDC1): 25.3 µM (inactive) | IC50 [27]: 3.25 µM (active) | EC50 [28]: 5.49 µM (active)
